This experiment has as its system P. falciparum 3D7 growth, pLDH absorbance. The experiment in a line: P. falciparum 3D7 growth inhibition, dose response, strain 3D7 (AID 2305).

Regarding `COc1ccc(CNC2Cc3ccccc3C2)cc1-c1ccc(S(=O)(=O)NCCN2CCCC2)s1`, the half-inhibitory concentration (IC50) turned out to be 190 nM.
For `O=C(CCCCCNC(=O)c1ccc(O)c(-c2ccc(Cl)c(Cl)c2)c1)NCCN1CCOCC1` the value was 830 nM; for `Cc1nc(-c2cccc(Nc3nccc(NCC(O)c4ccccc4)n3)c2)cs1` (stereo unspecified), 790 nM; for `Cc1ccc(-n2c(Sc3ncnc4sccc34)nnc2N2CCCC2)cc1`, 260 nM.
In turn, `Cc1cc(N(C)C)nc(Nc2ccc(NC(=O)CCc3ccccc3)cc2)n1` showed an IC50 of 850 nM.
For `COC(=O)c1ccc(NC(=O)Nc2cccc(CCNCc3ccccc3)c2)cc1` the value was 870 nM; for `Cc1cccn2c(=O)c3cc(C(=O)NCc4cccnc4)c(=N)n(CCc4ccccc4)c3nc12`, 710 nM.
For `c1cc(-c2ccc(CNCCCN3CCOCC3)cc2)cc(-c2nc3ccccc3[nH]2)c1` the value was 210 nM; for `O=C(NN=Cc1nc2ccccc2[nH]1)c1cccc([N+](=O)[O-])c1`, 630 nM; for `O=C(Nc1ccc(N2CCN(C(=O)C=Cc3ccccc3)CC2)c(Cl)c1)c1ccc([N+](=O)[O-])o1`, 860 nM.
For `CCc1cc2c(O)c([N+](=O)[O-])c(=O)oc2cc1OCCCCCOc1cc2oc(=O)c([N+](=O)[O-])c(O)c2cc1CC` the value was 260 nM; for `Cc1ccc(OC2CCN(CCCCC3(C)C(=O)Nc4ccccc43)CC2)cc1` (stereo unspecified), 740 nM.
`Cc1cc(C(=O)N[C@H]2CCN(Cc3ccc(OCCCN(C)C)cc3)C2)ccc1Br` returned an IC50 of 900 nM.
In the case of `COCCN1CCC(N(Cc2ccc(-c3ccc(OC(F)(F)F)cc3)cc2)C(=O)Cn2c(CCc3cccc(F)c3F)cc(=O)c3ccccc32)CC1`, the half-inhibitory concentration (IC50) worked out at 1210 nM.
Turning to `CCCCOP(=O)(COc1ccc(CCN(CC(O)COc2cccc3[nH]c4ccccc4c23)CC(O)COc2cccc3[nH]c4ccccc4c23)cc1)C1CCCCC1` (stereo unspecified), the half-inhibitory concentration (IC50) was determined as 940 nM.
`CC(=O)N(Cc1cccc(-c2ccc(CNCCc3ccccc3)cc2)c1)C1CCN(Cc2ccccc2)CC1` gave a half-maximal inhibitory concentration (IC50) of 690 nM.
Compound `Cc1cccc2[nH]c(-c3ccc(-c4cccc(NC(=O)Nc5ccc(Cl)c(Cl)c5)c4)s3)nc12` returned a half-maximal inhibitory concentration (IC50) of 590 nM.
Turning to `COc1ccccc1C1CC(c2ccccc2)=NN1C(=O)c1ccco1` (stereo unspecified), the IC50 amounted to 400 nM.
For `CCN(CC)CCNC(=O)/C(=C/C=C/c1cc2cc(Cl)c(Cl)cc2[nH]1)OC` the value was 930 nM.
In turn, `COc1nc2c(CCN3CCC(NCc4ccc5c(c4)NCCO5)CC3)c(Cl)cnc2cc1F` had a half-inhibitory concentration (IC50) of 180 nM.
For `Cn1cncc1CCN(Cc1ccc(-c2ccc(C(F)(F)F)cc2)cc1)C(=O)Cn1c(CCc2cccc(F)c2F)cc(=O)c2cccnc21` the value was 850 nM.
For `COc1cc(Cc2cnc(N)nc2N)cc(OCC(C)(C)C(=O)O)c1OC` the value was 1110 nM.
For `COc1ccc2ncc(F)c(CCN3[C@@H]4CC[C@H]3CC(NCc3ccc5c(c3)OCCO5)C4)c2n1` (stereo partly specified) the value was 230 nM; for `Cc1cccc2[nH]c(-c3cccc(-c4cccc(CNC(C)C)c4)c3)nc12`, 340 nM.
`Cc1ccc(Cn2cnc3cc(C(=O)Nc4ccc(-c5cccc(CN(C)C)c5)cc4)ccc3c2=O)o1`: the half-inhibitory concentration (IC50) turned out to be 630 nM.
For `CC(C)(C)c1ccc(CN2CCC(NC(=O)c3ccc(-c4cccc(F)c4)s3)CC2)cc1` the value was 1090 nM.
For `CC(C)Oc1cccc(-c2ccc(C(=O)NCC3CCCN(Cc4cccc(C(F)(F)F)c4)C3)s2)c1` (stereo unspecified) the value was 1080 nM.
`CC(C)c1ccc(-c2noc(SCC(=O)N(C)c3ccc(F)cc3)n2)cc1` gave an IC50 of 1170 nM.
For `COc1ccc(NC(=O)Nc2cccc(-c3ccncc3)c2)cc1N1CCN(C)CC1` the value was 550 nM; for `Cc1ccc2[nH]c(-c3ccc(C(=O)NCc4ccc(Cl)c(Cl)c4)cc3)nc2c1C`, 790 nM.
For `O=C(Nc1cccc(-c2ccc(-c3nc4ccc(C(F)(F)F)cc4[nH]3)s2)c1)c1ccncc1`, the IC50 was 680 nM.
For `Cn1ccc(C(=O)Nc2ccc3c(c2)CN(Cc2ccc(N4CCCC4)o2)CCC3)n1` the value was 1310 nM.
For `COc1ccc2nccc(N3CCN(CCNCc4ccc5c(n4)NC(=O)CO5)CC3)c2n1` the value was 880 nM; for `Cc1nnsc1C(=O)Nc1ccc(-c2cccc(-c3nc4ccc(F)cc4[nH]3)c2)cc1`, 770 nM; for `COc1cc2c(cc1OC)C(c1ccc(Br)cc1)CN(C)CC2` (stereo unspecified), 940 nM.
For `CCn1cnc2c(Nc3cccc([N+](=O)[O-])c3)nc(N3CCC(N4CCCCC4)CC3)nc21`, the IC50 came to 950 nM.
For `OC1CCCN(Cc2cccc(-c3ccc(-c4nc5ccc(C(F)(F)F)cc5[nH]4)cc3)c2)C1` (stereo unspecified) the value was 690 nM; for `FC(F)(F)c1cccc(N2CCC(CN3CCC(c4c[nH]c5ccccc45)CC3)CC2)n1`, 980 nM.
For `CCC(Cc1cnc2nc(N)nc(N)c2n1)c1ccc(C(=O)O)cc1` (stereo unspecified) the value was 250 nM; for `COc1coc(C(=O)NC2CCN(CC3(c4ccc(Cl)cc4)CCC3)CC2)c1OC`, 160 nM; for `CC(C#N)Cc1ccc(-c2cnc(N)c3cc(-c4ccnc(N)n4)ccc23)cc1` (stereo unspecified), 990 nM.
For `CS(=O)(=O)CCOCc1ccc(-c2ccc3ncnc(Nc4ccc(OCc5cccc(F)c5)c(Cl)c4)c3c2)o1` the value was 800 nM; for `O=C(Nc1ccccc1Oc1ccccc1)NC1CCN(c2ccnc3cc(Cl)ccc23)C1` (stereo unspecified), 170 nM.
Take `COc1cccc2cc(C(=O)N[C@@H](CC(C)C)C(=O)N[C@H](/C=N/NC(=O)Cc3cccnc3)CCc3ccccc3)oc12`: the IC50 was determined as 950 nM.
As to `CCN1CCCC(CNC(=O)/C(=C/C=C/c2cc3cc(Cl)c(Cl)cc3[nH]2)OC)C1` (stereo unspecified), the IC50 turned out to be 890 nM.
For `CCOC(=O)C1=C(C)N=c2sc(=Cc3ccccc3O)c(=O)n2C1c1ccc(OC)c2ccccc12` (stereo unspecified) the value was 1260 nM; for `CCOC(=O)C(Oc1ccc2ccccc2c1)C(=O)OCC`, 760 nM.
For `COc1ccc(C2C(C(=O)Nc3ccc4c(c3)OCO4)c3cc(OC)c(OC)cc3C(=O)N2C)cc1` (stereo unspecified) the value was 1040 nM; for `FC(F)(F)c1ccc2nc(-c3ccc(-c4cccc(CN5CCCCC5)c4)cc3)[nH]c2c1`, 140 nM.
For the compound `O=C(Nc1ccc(Cl)cc1)Nc1ccc(OCC(O)CN2CCCCC2)cc1` (stereo unspecified), the half-inhibitory concentration (IC50) stood at 1160 nM.
As for `CCn1c(C(C)C)cc2c3c(N)nc(N)nc3ccc21`, the IC50 amounted to 10 nM.
For `COc1ccc(Nc2nccc(N3CCC(NC(=O)Nc4cccc(C(C)=O)c4)C3)n2)cc1` (stereo unspecified) the value was 820 nM; for `Cc1cc(C2CCN(CCCCNC(=O)c3ccc(NC(=O)c4ccc(Cl)cc4)cc3)CC2)c(C)cc1OC(C)C`, 740 nM.
Compound `O=c1c(Br)ccccc1Br` had a half-maximal inhibitory concentration (IC50) of 790 nM.
The compound `COc1ccc(Nc2nccc(NCCNC(=O)Nc3cc(C)ccc3C)n2)cc1` gave an IC50 of 1050 nM.
With `CCOc1cc(C(=O)Nc2ccc3nc(N4CCN(C)CC4)cc(C)c3c2)cc(OCC)c1OCC`, the concentration for half-maximal inhibition (IC50) was 850 nM.
In turn, `Cc1nc(N)nc(N)c1Oc1cccc(Cl)c1` had an IC50 of 870 nM.
For the compound `CN1CCc2cc(O)c(NS(=O)(=O)c3ccc(-c4ccc(Cl)cc4)cc3)cc2CC1`, the concentration for half-maximal inhibition (IC50) was 770 nM.
Regarding `CCC(=O)N(c1ccccc1)C1CCN(CCCC(NC(=O)Nc2cc(C(F)(F)F)cc(C(F)(F)F)c2)c2ccc(Cl)c(Cl)c2)CC1` (stereo unspecified), the half-maximal inhibitory concentration (IC50) stood at 670 nM.
For `COc1ccc(Cl)cc1N1CCN(CCCNC(=O)c2ccc(-c3nc4ccc(C(F)(F)F)cc4[nH]3)c(C)c2)CC1` the value was 760 nM; for `FC(F)(F)c1ccc2nc(-c3cccc(-c4cccc(CNCc5cnn(-c6ccccc6)n5)c4)c3)[nH]c2c1`, 550 nM.
For `CN1CCN(Cc2ccc(-c3cccc(-c4nc5ccccc5[nH]4)c3)cc2)CC1` the value was 1390 nM; for `Cc1[nH]c(C)c([N+](=O)[O-])c(=O)c1-c1ccc(Oc2ccc(OC(F)(F)F)cc2)cc1`, 250 nM.
`NC(=O)c1cccc(Nc2nccc(Nc3ccc(Oc4c(Cl)cccc4Cl)c(Cl)c3)n2)c1` returned an IC50 of 870 nM.
`CCc1ccc(O)c(-c2cc(C(=O)Nc3cccnc3)[nH]n2)c1` returned a concentration for half-maximal inhibition (IC50) of 690 nM.
For `CC(C)CNC(=O)c1cncc(-c2cccc(CNC3Cc4ccccc4C3)c2)c1`, the IC50 is 790 nM.
For `CN1CCN(Cc2nc(-c3ccc4c(Nc5ccc(Oc6ccccc6)cc5)ccnc4c3)cs2)CC1` the value was 310 nM; for `Cc1[nH]c(C)c(-c2ccc(Oc3ccc(Cl)cc3)cc2)c(=O)c1I`, 960 nM.
For `COc1ccc(O)c(-c2sc(N=C(N)N)nc2-c2ccccc2)c1` the value was 370 nM.
For `COc1ccc(NC(=O)[C@H](CC(C)C)Nc2cc(C)nc(NCCc3ccccc3)n2)cc1` the value was 890 nM; for `CC(C)[C@@H]1c2ccc(O)cc2C[C@H]2C(=O)N(C3CCCCC3)C(=O)N21`, 880 nM; for `O=C(C=Cc1ccc(F)c(Br)c1)N1CCC(CN2CCC(c3c[nH]c4ccccc34)CC2)CC1`, 750 nM.
Regarding `Cc1cc(N2CCOCC2)nc2ccc(NC(=O)c3cccc([N+](=O)[O-])c3)cc12`, the IC50 is 890 nM.
For `CC1(C)C[C@@H]2C[C@@](C)(CN2C(=O)c2cc(C(C)(C)C)nn2Cc2ccccc2)C1` the value was 1090 nM.
For `Oc1ccc(CN2CCN(CCOC(c3ccc(F)cc3)c3ccc(F)cc3)CC2)cc1Cl` the value was 940 nM; for `COc1ccc(C2C(C(=O)Nc3ccc(C)c(F)c3)c3cc(OC)c(OC)cc3C(=O)N2C)cc1` (stereo unspecified), 960 nM.
As to `CN(C)CCOc1cccc(-c2cnc(N)c(-c3nc4ccc(S(C)(=O)=O)cc4[nH]3)c2)c1`, the IC50 amounted to 950 nM.
Consider `CC(C)CN1C(=O)C(c2ccc(F)c(F)c2)=C(O)C1c1ccccc1` (stereo unspecified), for which the half-maximal inhibitory concentration (IC50) amounted to 190 nM.
For `CC(=O)N1CCC(C(=O)Nc2ccc(-c3cccc(-c4nc5c(C)cccc5[nH]4)c3)cc2)CC1` the value was 310 nM; for `CCCC(C)NC(=O)/C=C/c1ccccc1-c1cccc(OC)c1` (stereo unspecified), 1250 nM.
For `NC(=NCc1ccccc1)Nc1nc(-c2ccc(OCCCn3ccnc3)cc2)cs1` the value was 250 nM; for `c1ccc(C2CCN(Cc3ccc(-c4c[nH]c5nc(NC6CCCC6)ncc45)cc3)CC2)cc1`, 1010 nM; for `O=C(Nc1cccnc1)c1cc(C(=O)Nc2cccnc2)cc([N+](=O)[O-])c1`, 1120 nM.
For `COc1ccccc1CCNc1nc(C)cc(N[C@@H](Cc2ccccc2)C(=O)NCCc2ccccc2)n1` the value was 1110 nM.
`CCCCCCCCc1[nH]c(C)c(Br)c(=O)c1Br` came in with a 50% inhibitory concentration (IC50) of 180 nM.
`COc1cc(Nc2ncnc3cc(OC)c(OC)cc23)cc([N+](=O)[O-])c1`: the IC50 amounted to 810 nM.

As a reminder, the IC50 is the midpoint of a concentration-inhibition curve. Read a high IC50 as weaker potency.
